Literature values, collected in patent EP0840727B1, “3-HYDROXY-2(1H)-[…] AGENTS” (priority 1995, dated 1997).
Marks after values point to notes of the source that are not given here.

Settings: ligand 30 µmol kg^-1 ip at 1 h after iv ^238Pu(IV) citrate, kill at 24 h, reported previously, cited from earlier work

In the case of `O=C(NCc1cc(CNC(=O)c2cccc(=O)n2O)cc(CNC(=O)c2cccc(=O)n2O)c1)c1cccc(=O)n1O` [ME-(1,2-HOPO)], the “percent of injected ^238Pu at 24 h, excreta: feces and GI contents” value (pooled samples) is given as 43% of injected ^238Pu, the “percent of injected ^238Pu at 24 h, excreta: urine 0-24 h” value (pooled samples) is given as 9.6% of injected ^238Pu and the “percent of injected ^238Pu at 24 h, tissues: kidneys” value (pooled samples) is given as 1.8% of injected ^238Pu. The “percent of injected ^238Pu ± SD at 24 h, tissues: liver” value was 18 ± 6.3^d percent of injected ^238Pu, the “percent of injected ^238Pu ± SD at 24 h, tissues: skeleton” value was 17 ± 2.5% of injected ^238Pu and the “percent of injected ^238Pu ± SD at 24 h, tissues: soft tissue” value was 10 ± 1.8% of injected ^238Pu. The “percent of injected ^238Pu ± SD at 24 h, whole body” value was 47 ± 9.4% of injected ^238Pu.
